Experimental findings from patent US11519922B2, “Methods for identifying risk of chemotherapy-induced cardiotoxicity and targeted medical intervention” (Detroit R&D, Inc., priority 2018, dated 2022) are described below.

Molecules are shown by their SMILES.

One assay concerns the target T1, sEH enzyme in H9c2 cells (Rattus norvegicus, UniProt P80299).
T1 construct: host or cells: H9c2 rat cardiomyocytes
T1 sequence (P80299 1-554): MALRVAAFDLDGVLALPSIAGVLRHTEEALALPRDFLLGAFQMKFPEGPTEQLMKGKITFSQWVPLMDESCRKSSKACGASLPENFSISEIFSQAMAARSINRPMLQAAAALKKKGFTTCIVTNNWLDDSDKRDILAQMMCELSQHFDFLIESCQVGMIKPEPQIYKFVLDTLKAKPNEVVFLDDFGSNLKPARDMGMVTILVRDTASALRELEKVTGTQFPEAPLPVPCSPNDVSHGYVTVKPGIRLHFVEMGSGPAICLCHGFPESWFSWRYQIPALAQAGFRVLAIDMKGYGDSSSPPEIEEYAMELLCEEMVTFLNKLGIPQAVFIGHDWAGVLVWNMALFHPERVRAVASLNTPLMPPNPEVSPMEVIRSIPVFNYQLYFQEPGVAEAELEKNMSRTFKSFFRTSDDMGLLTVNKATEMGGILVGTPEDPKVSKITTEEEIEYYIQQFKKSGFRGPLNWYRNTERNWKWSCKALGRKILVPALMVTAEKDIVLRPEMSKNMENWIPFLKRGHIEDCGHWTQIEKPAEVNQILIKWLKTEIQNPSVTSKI
Put plainly: 14,15-DHET formation from added 14,15-EET by H9c2 cells. In kind it is cell-based. Here is the method:
Expression of sEH enzyme in the cells was confirmed by detection of increased 14,15-DHET formation activity after 1 μM EET (substrate) treatment.
sEH enzyme converts 14,15-EET to 14,15-DHET, so differential levels of 14,15-DHET will reflect sEH activity. After addition of 1 μM 14,15-EET to H9c2 cells, ˜250 ng/ml 14,15-DHET was formed in cell media in 30 min and 4.5-fold higher level of 14,15-DHET was formed when the EET level was increased from 1 μM to 5 μM, verifying EET-dose-dependent 14,15-DHET formation by rat H9c2 cardiomyocyte cells.

The next assay concerns the target T2, recombinant sEH (Homo sapiens, UniProt P34913).
T2 sequence (P34913 1-555): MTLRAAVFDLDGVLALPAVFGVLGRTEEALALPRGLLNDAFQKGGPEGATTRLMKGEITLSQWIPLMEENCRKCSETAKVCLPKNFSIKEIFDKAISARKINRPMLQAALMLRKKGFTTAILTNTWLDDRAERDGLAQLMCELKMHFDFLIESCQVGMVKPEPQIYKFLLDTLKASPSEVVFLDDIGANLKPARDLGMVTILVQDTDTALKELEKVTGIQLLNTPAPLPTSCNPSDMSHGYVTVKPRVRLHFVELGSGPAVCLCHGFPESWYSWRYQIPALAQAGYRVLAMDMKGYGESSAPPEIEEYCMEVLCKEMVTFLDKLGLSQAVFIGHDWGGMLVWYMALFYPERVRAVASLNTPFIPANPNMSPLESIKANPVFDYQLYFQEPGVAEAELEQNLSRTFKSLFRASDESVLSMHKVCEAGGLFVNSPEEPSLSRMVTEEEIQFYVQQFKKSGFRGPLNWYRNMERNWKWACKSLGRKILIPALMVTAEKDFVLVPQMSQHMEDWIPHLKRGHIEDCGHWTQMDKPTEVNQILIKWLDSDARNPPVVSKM
In words: Inhibition of EET-dependent sEH activity, reconstituted system. The assay is classed as biochemical.

The target of assay [1] is T3, sEH in human kidney cells (ACHN) (Homo sapiens, UniProt P34913).
T3 construct: recombinant sEH and human kidney cells (ACHN); endogenous in cells; host or cells: ACHN human kidney cells
T3 sequence (P34913 1-555): T2 sequence (P34913 1-555)
In words: Inhibition of EET-dependent sEH activity in kidney cells. In kind it is cell-based. To be noted: EET 1 μM.

Take `CCCCCC1OC1C/C=C\C/C=C\C/C=C\CCCC(=O)O` (centres unmarked) [14,15-EET]: the “14,15-DHET formed in cell media” value at sEH enzyme in H9c2 cells (1 μM 14,15-EET, 30 min) was approximately 250 ng/mL. The “higher level of 14,15-DHET formed” value at sEH enzyme in H9c2 cells (EET level increased from 1 μM to 5 μM) is 4.5 fold.
Take `C=CCc1ccc(O)c(-c2ccc(O)c(CC=C)c2)c1` [Honokiol]: the “EET-dependent sEH activity” value on recombinant sEH (EET 1 μM, reconstituted system with recombinant sEH) is reported as “inhibited”; in assay [1], “inhibited”. The “inhibitor of the sEH activity (overall statement)” value on recombinant sEH (recombinant sEH and ACHN cells) is reported as “potent inhibitors”.
